Laboratory results reported in patent US20040198758A1, “N-heterocyclyl substituted thienyloxy-pyrimidines used as herbicides” (priority 2001, published 2004).

Tests used:
Test in all cases: greenhouse post-emergence herbicidal treatment
Format in all cases: in vivo
Conditions in all cases: application rates of 0.25 or 0.125 kg/ha
Polygonum persicaria = tested on: Polygonum persicaria
From the text: (§1) The seeds of the test plants were sown separately for each species. For the post-emergence treatment, the test plants were first grown to a height of from 3 to 15 cm, depending on the plant habit, and only then treated with the active compounds which had been suspended or emulsified in water. The test plants were for this purpose either sown directly and grown in the same containers., or they were first grown separately as seedlings and transplanted into the test containers a few days prior to treatment. The application rate for the post-emergence treatment was 0.25 or 0.125 kg of a.s. (active substance)/ha. Depending on the species, the plants were kept at 10-25° C. or 20-35° C. The test period extended over 2 to 4 weeks. During this time, the plants were tended, and their response to the individual treatments was evaluated. Evaluation was carried out using a scale from 0 to 100. 100 means no emergence of the plants, or complete destruction of at least the above-ground parts and 0 means no damage, or normal course of growth. The plants used in the greenhouse experiments were of the following species: [table]

Chenopodium album = tested on: Chenopodium album
From the text: as §1

Pharbitis purpurea = tested on: Pharbitis purpurea
From the text: as §1

Amaranthus retroflexus = tested on: Amaranthus retroflexus
From the text: as §1

Galium aparine = tested on: Galium aparine
From the text: as §1

Cc1cnc(-n2ccc(C(F)(F)F)n2)nc1Oc1csc(C(F)(F)F)c1 [I 1.1, 5-methyl-2-[3-(trifluoromethyl)-1H-pyrazol-1-yl]-4-{[5-(trifluoromethyl)-3-thienyl]oxy}pyrimidine]
very good: post-emergence action against Polygonum persicaria (Polygonum persicaria) | post-emergence action against Chenopodium album (Chenopodium album) | post-emergence action against Pharbitis purpurea (Pharbitis purpurea) | post-emergence action against Amaranthus retroflexus (Amaranthus retroflexus) | post-emergence action against Galium aparine (Galium aparine)
